Test results taken from ChEMBL document CHEMBL5038653, “A Brain-Penetrant and Bioavailable Pyrazolopiperazine BACE1 Inhibitor Elicits Sustained Reduction of Amyloid β In Vivo” (ACS Med Chem Lett, 2022).
Converted amounts (≈) assume the structure as drawn.

Experiments:
[1] = Drug level in CD-1 mouse brain at 10 mg/kg, po measured at 1 hr post dose; assay type: ADME, organism-based; conditions: read-out: Ct
[2] = Clearance in dog at 0.25 mg/kg, iv to liver blood flow; assay type: ADME, organism-based, Canis lupus familiaris; conditions: in vivo
[3] = Free drug concentration in human plasma measured after 4.5 hrs by HPLC-MS/MS method; assay type: ADME, cell-free
[4] = Toxicity in guinea pig assessed as effect on body temperature at 0.63 to 5 mg/kg, iv administered over 10 mins at 30 mins interval; assay type: organism-based, Cavia porcellus; conditions: in vivo, dose 0.63-5 mg/kg
[5] = Clearance in rat plasma at 0.25 mg/kg, iv; assay type: ADME, organism-based
[6] = Clearance in mouse at 0.28 mg/kg, iv relative to liver blood flow; assay type: ADME, organism-based; conditions: in vivo
[7] = Dissociation constant, pKa of the compound by fast UV-spectrometric titration analysis; assay type: physicochemical
Cytochrome P450 2D6 = Cytochrome P450 2D6 (Homo sapiens, UniProt P10635); test: Inhibition of human CYP2D6 by fluorescence plate reader analysis; assay type: ADME
Sequence of Cytochrome P450 2D6 (P10635 whole entry): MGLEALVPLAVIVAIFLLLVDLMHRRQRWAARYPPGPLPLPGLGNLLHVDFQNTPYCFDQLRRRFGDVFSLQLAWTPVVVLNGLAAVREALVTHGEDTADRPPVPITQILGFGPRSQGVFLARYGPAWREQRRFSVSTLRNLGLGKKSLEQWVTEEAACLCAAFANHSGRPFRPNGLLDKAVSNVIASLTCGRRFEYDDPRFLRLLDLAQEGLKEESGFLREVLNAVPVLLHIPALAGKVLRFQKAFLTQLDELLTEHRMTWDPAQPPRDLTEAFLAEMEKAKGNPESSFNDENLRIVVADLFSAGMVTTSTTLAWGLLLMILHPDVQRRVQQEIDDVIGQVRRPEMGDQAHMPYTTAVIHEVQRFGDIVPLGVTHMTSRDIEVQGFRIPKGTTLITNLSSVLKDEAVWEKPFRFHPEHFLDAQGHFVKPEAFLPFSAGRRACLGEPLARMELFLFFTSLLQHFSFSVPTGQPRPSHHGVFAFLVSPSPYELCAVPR

Cathepsin D = Cathepsin D (Homo sapiens, UniProt P07339); test: Inhibition of Cathepsin D (unknown origin)
Sequence of Cathepsin D (P07339 65-162 limits assumed): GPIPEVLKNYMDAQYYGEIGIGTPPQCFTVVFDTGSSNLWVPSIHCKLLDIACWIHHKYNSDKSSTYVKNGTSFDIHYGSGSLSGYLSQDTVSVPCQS
Sequence of Cathepsin D (P07339 169-412 limits assumed): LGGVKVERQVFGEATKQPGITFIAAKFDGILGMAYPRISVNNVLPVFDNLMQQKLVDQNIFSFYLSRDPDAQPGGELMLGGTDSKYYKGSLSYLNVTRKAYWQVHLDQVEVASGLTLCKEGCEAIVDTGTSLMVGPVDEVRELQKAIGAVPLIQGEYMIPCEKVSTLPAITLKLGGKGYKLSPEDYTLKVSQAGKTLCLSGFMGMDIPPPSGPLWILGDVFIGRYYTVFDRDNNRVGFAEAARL

[8] = Cmax in dog at 2.5 mg/kg, po; assay type: ADME, organism-based, Canis lupus familiaris; parameters: route oral, dose 2.5 mg/kg; conditions: in vivo
[9] = Toxicity in Beagle dog assessed as behavioral changes at 0.31 to 5 mg/kg, po; assay type: organism-based, Canis lupus familiaris; conditions: in vivo, dose 0.31-5 mg/kg
[10] = Clearance in mouse plasma at 0.28 mg/kg, iv; assay type: ADME, organism-based
[11] = Cardiotoxicity in guinea pig assessed as effect on QT cB interval upto 5 mg/kg, iv administered over 10 mins at 30 mins interval by ECG analysis; assay type: toxicity, organism-based, Cavia porcellus; conditions: in vivo
[12] = AUC (0 to last) in mouse at 2.1 mg/kg, po; assay type: ADME, organism-based; parameters: route oral, time 0 - last, dose 2.1 mg/kg; conditions: in vivo
[13] = Metabolic stability in human liver microsomes assessed as metabolite formation after 15 mins in presence of NADPH by LC-MS analysis; assay type: ADME, Microsome; conditions: 0.25 h
Cytochrome P450 2C9 = Cytochrome P450 2C9 (Homo sapiens, UniProt P11712); test: Inhibition of human CYP2C9 by fluorescence plate reader analysis; assay type: ADME
Sequence of Cytochrome P450 2C9 (P11712 whole entry): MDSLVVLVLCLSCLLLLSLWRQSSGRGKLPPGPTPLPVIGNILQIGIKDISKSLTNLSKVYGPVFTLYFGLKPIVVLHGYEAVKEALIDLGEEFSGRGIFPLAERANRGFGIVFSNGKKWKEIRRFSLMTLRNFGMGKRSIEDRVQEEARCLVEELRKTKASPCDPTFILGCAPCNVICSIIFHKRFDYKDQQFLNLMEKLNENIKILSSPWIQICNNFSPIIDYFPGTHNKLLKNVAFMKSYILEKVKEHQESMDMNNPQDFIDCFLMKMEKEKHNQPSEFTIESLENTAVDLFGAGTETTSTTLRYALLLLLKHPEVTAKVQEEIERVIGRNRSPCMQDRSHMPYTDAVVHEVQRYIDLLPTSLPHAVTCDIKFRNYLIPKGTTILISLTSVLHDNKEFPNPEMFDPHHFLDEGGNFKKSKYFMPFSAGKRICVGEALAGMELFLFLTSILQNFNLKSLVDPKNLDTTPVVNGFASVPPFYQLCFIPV

Cytochrome P450 2C8 = target: T1, Cytochrome P450 2C8 (Homo sapiens, UniProt P10632); test: Inhibition of human CYP2C8 by fluorescence plate reader analysis; assay type: ADME
T1 sequence (P10632 whole entry): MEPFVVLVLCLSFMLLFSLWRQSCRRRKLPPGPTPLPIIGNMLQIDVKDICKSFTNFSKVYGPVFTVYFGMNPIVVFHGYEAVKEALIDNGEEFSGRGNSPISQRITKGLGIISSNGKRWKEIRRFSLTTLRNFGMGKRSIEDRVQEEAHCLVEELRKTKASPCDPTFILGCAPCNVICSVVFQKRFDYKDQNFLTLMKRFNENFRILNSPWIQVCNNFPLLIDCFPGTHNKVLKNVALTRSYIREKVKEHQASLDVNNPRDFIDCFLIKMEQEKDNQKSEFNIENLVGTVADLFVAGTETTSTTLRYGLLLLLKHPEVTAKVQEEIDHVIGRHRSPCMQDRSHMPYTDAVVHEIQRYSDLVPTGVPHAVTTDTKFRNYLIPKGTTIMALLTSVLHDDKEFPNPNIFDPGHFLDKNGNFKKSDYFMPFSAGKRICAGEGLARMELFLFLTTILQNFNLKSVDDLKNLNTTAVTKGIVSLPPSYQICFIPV

[14] = Drug level in CD-1 mouse brain at 10 mg/kg, po measured at 4 hr post dose; assay type: ADME, organism-based; conditions: read-out: Ct
Beta-secretase 1 = Beta-secretase 1 (Homo sapiens, UniProt P56817); test: Inhibition of BACE1 (1 to 454 residues) (unknown origin) using APP harboring Swedish Lys/Met mutant-derived peptide as substrate by FRET assay
Sequence of Beta-secretase 1 (P56817 whole entry, the tested form may be a part): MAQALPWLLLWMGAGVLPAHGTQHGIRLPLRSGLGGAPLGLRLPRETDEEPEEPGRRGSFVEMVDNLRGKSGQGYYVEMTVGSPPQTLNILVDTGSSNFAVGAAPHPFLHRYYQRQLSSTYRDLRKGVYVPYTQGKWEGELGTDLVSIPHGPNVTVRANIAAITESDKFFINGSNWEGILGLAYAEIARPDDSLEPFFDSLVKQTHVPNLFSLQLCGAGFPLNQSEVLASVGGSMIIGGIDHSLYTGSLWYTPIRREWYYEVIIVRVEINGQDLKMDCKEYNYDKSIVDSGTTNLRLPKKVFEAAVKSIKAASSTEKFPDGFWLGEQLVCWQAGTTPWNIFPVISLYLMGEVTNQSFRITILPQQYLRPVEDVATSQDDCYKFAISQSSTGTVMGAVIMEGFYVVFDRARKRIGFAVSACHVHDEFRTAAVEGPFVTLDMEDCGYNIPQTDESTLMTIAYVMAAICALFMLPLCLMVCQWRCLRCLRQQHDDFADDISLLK

[15] = Metabolic stability in mouse liver microsomes assessed as metabolite formation after 15 mins in presence of NADPH by LC-MS analysis; assay type: ADME, Microsome; conditions: 0.25 h
[16] = AUC (0 to last) in rat at 2.3 mg/kg, po; assay type: ADME, organism-based; parameters: time 0 - last, route oral, dose 2.3 mg/kg; conditions: in vivo
[17] = Apparent permeability across apical to basolateral side in dog MDCK-MDR1 cells at 5 uM incubated for 120 mins; assay type: ADME, cell-based, Canis lupus familiaris
Cytochrome P450 3A4 [18] = target: T2, Cytochrome P450 3A4 (Homo sapiens, UniProt P08684); test: Inhibition of human CYP3A4 using midazolam as substrate by fluorescence plate reader analysis; assay type: ADME
T2 sequence (P08684 whole entry): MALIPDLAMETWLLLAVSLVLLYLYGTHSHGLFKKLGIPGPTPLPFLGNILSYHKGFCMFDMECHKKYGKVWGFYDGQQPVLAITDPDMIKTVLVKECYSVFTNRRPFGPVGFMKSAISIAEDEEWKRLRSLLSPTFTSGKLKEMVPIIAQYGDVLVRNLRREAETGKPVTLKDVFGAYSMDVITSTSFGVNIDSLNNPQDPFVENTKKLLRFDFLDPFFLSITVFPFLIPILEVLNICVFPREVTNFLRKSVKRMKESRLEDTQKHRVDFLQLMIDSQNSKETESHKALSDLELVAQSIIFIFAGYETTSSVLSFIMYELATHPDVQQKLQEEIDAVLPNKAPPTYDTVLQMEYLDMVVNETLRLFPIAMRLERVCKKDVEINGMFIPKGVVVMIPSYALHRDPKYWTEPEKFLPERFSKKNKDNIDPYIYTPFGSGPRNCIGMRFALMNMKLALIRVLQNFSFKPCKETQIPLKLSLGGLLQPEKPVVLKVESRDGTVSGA

[19] = Clearance in dog plasma at 0.25 mg/kg, iv; assay type: ADME, organism-based, Canis lupus familiaris
[20] = Free drug concentration in mouse plasma measured after 4.5 hrs by HPLC-MS/MS method; assay type: ADME, cell-free
[21] = In vivo inhibition of BACE1 in Beagle dog assessed as reduction of amyloid beta (1 to 42 residues) levels in CSF administered orally by electrochemiluminescence assay; assay type: functional, organism-based, Canis lupus familiaris
[22] = AUC (0 to infinity) in dog at 0.25 mg/kg, iv; assay type: ADME, organism-based, Canis lupus familiaris; parameters: route intravenous, time infinity, dose 0.25 mg/kg; conditions: in vivo
[23] = Free drug concentration in rat brain measured after 5 hrs by HPLC-MS/MS method; assay type: ADME, tissue-based
[24] = Cardiotoxicity in guinea pig assessed as effect on QRS interval upto 5 mg/kg, iv administered over 10 mins at 30 mins interval by ECG analysis; assay type: toxicity, organism-based, Cavia porcellus; conditions: in vivo
hERG (KCNH2) = hERG (KCNH2) (Homo sapiens, UniProt Q12809); test: Inhibition of hERG expressed in HEK293 cells at 3 uM at -80 mV holding potential by automated patch-clamp method; assay type: toxicity, cell-based; conditions: HEK293 cells expressing hERG
Sequence of hERG (KCNH2) (Q12809 whole entry): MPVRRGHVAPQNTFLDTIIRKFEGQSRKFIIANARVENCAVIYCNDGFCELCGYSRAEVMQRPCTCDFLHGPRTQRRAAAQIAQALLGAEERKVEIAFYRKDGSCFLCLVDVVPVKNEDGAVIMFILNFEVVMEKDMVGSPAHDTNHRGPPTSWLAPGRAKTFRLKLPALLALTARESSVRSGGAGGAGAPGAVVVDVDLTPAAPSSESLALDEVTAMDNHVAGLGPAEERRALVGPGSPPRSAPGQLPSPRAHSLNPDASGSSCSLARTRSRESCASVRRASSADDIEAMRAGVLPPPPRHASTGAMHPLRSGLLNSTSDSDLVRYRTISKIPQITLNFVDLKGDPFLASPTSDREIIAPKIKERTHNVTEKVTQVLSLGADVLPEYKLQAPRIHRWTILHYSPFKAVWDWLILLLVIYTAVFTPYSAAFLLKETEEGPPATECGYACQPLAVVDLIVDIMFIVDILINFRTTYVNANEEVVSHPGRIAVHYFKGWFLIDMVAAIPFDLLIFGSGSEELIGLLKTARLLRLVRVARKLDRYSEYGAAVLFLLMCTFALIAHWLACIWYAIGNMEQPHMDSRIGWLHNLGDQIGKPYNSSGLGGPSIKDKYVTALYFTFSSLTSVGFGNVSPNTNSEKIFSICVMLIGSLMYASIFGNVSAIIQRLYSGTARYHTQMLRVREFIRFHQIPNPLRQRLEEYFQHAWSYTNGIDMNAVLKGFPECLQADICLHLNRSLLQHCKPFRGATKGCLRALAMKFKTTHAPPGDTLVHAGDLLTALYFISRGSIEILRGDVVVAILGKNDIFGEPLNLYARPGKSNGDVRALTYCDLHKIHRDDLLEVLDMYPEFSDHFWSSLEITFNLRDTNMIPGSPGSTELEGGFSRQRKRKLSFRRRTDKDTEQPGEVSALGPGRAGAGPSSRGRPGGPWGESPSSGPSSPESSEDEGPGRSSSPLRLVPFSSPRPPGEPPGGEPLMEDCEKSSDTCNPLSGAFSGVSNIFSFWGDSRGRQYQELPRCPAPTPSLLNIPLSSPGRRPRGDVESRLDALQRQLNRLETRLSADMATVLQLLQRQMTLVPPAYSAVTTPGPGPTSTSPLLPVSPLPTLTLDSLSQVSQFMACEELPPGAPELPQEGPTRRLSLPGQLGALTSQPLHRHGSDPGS

Cytochrome P450 3A4 [25] = target: T2, Cytochrome P450 3A4; test: Inhibition of human CYP3A4 using testosterone as substrate by fluorescence plate reader analysis; assay type: ADME
Cytochrome P450 1A2 = target: T3, Cytochrome P450 1A2 (Homo sapiens, UniProt P05177); test: Inhibition of human CYP1A2 by fluorescence plate reader analysis; assay type: ADME
T3 sequence (P05177 whole entry): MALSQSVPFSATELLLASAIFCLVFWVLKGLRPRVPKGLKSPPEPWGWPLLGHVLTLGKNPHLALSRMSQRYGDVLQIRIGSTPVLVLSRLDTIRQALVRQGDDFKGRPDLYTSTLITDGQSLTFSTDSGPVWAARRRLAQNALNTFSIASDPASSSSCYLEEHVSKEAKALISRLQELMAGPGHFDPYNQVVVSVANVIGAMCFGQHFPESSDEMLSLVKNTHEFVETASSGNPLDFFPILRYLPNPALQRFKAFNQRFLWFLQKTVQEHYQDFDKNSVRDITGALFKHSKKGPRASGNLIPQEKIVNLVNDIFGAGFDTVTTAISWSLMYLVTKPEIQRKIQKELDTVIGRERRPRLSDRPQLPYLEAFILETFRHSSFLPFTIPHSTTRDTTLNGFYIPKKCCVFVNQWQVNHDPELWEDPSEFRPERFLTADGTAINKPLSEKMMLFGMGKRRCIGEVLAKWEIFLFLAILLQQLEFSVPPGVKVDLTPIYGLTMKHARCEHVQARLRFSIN

[26] = Drug level in CD-1 mouse plasma at 10 mg/kg, po measured at 4 hr post dose; assay type: ADME, organism-based
[27] = target: Voltage-gated inwardly rectifying potassium channel KCNH2 (Homo sapiens, UniProt Q12809); test: Inhibition of hERG expressed in HEK293 cells at -80 mV holding potential by automated patch-clamp method; assay type: toxicity, cell-based
Sequence of Voltage-gated inwardly rectifying potassium channel KCNH2 (Q12809 whole entry): as the sequence (Q12809 whole entry) above

In the case of `COc1cnc(C(=O)Nc2ccc(F)c([C@]3(C)Cn4nc(C#N)cc4C(N)=N3)c2)cn1`, the concentration at 1 h [1] is reported as 621 ng/g, the CL [2] is reported as 20% and the fraction unbound at 4.5 h [3] is reported as 0.28. For the same molecule, the Activity [4] was “Non-Toxic”, the clearance [5] was 19 mL/min/kg and the CL [6] was 25%. The pKa [7] was 7.1, the IC50 (Cytochrome P450 2D6) was over 30 µM and the IC50 (Cathepsin D) was over 100 µM. The Cmax [8] was 352 ng/mL, the Activity [9] was “Non-Toxic” and the clearance [10] was 23 mL/min/kg. For the same molecule, the Activity [11] was “Non-Toxic”, the AUClast [12] was 1910 ng·h/mL and the Drug metabolism [13] was 8%. It also gave an IC50 (Cytochrome P450 2C9) of over 30 µM, an IC50 (Cytochrome P450 2C8) of over 30 µM and a concentration at 4 h [14] of 402 ng/g. For the same molecule, the IC50 (Beta-secretase 1) was 0.0029 µM, the Drug metabolism [15] was 23% and the AUClast [16] was 1170 ng·h/mL. It also gave a Papp A→B at 2 h, 5 µM [17] of 13.1 ×10⁻⁶ cm/s, an IC50 (Cytochrome P450 3A4 [18]) of over 30 µM and a clearance [19] of 6 mL/min/kg. It also gave a fraction unbound at 4.5 h [20] of 0.05, an EC90 [21] of 44 ng/mL (≈ 0.105 µM) and an EC50 ([21]; Canis lupus familiaris, Beagle) of 7.5 ng/mL (≈ 0.0178 µM). The AUC [22] was 654 ng·h/mL, the fraction unbound at 5 h [23] was 0.015 and the Activity [24] was “Non-Toxic”. It also gave an inhibition at 3 µM (hERG (KCNH2)) of 48%, an IC50 (Cytochrome P450 3A4 [25]) of over 30 µM and an IC50 (Cytochrome P450 1A2) of over 30 µM. For the same molecule, the concentration at 4 h [26] was 530 ng/mL and the IC50 [27] was over 10 µM.
